Earlier results in patent US11384033B2, “Compositions with improved urease-inhibiting effect comprising (thio)phosphoric acid triamide and further compounds such as amines and colorants” (BASF SE, priority 2014, dated 2022).

Conditions: de-ionized water at 25° C. and atmospheric pressure

In the case of CC(O)CO (stereo not shown) [propane-1,2-diol], the pKa value is listed as 14.9.
